Publication PMC5571211 (Scientific Reports, 2017)

Legend:
sEH in HepG2 cells = biological target: T1, sEH in HepG2 cells (Homo sapiens, UniProt P34913); experiment: 14,15-DiHETrE formation in HepG2 cells (cell-based sEH assay); conditions: HepG2 cells; AUDA 5 µM, MK886 0.3 µM, SC57461A 0.3 µM
T1 construct: sEH is constitutively expressed in the human liver cancer cell line HepG2; endogenous in cells; host or cells: HepG2
T1 sequence (P34913 1-555): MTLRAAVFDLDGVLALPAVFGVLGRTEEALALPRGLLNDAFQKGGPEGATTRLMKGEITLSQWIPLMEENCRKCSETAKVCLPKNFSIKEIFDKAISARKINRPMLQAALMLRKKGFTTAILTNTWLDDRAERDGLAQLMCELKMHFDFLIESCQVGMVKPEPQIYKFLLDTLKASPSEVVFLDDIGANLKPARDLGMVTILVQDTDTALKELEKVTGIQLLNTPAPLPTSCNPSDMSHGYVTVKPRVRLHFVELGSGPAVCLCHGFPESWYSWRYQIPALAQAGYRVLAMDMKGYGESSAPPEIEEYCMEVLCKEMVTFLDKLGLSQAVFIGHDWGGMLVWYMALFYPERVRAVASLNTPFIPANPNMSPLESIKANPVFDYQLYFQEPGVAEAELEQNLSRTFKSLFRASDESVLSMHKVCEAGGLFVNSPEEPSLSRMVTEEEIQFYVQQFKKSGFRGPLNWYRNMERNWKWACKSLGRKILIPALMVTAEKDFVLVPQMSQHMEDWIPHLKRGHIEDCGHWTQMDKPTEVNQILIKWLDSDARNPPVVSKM
Experimental: To assay the activity of sEH in a cell-based model, HepG2 cells were harvested by trypsinization, pelleted (1,200 rpm, 5 min, 4 °C) and resuspended in PGC buffer to a final concentration of 1.5 × 10^6 cells/mL. […] Briefly, samples were acidified with four volumes of MilliQ water pH 3.5 containing PBS-HCl and subjected to Waters Sep-Pak® Vac 6cc columns (Waters, Milford, MA, USA), washed once with MilliQ and hexane, and eluted with methylformiate. The nitrogen-dried samples were dissolved in 50% methanol, and 14,15-DiHETrE formation was measured by UPLC-MS/MS using an Acquity™ UPLC system (Waters, Milford, MA, USA) and a QTRAP 5500 Mass Spectrometer (ABSciex, Darmstadt, Germany) equipped with a Turbo V™ Source and electrospray ionization (ESI). […] Ion spray voltage was set to 4000 V, the heater temperature to 500 °C, the declustering potential to 50–80 eV, the entrance potential to 10 eV, the collision cell exit potential to 10–13 eV, collision energies of 10 eV, the spray gas pressure to 40 psi, medium collision gas and the curtain gas pressure to 35 psi.

human recombinant LTA4-H = biological target: T2, human recombinant LTA4-H (Homo sapiens, UniProt P09960); experiment: LTA4 hydrolase activity, co-incubation of isolated 5-LOX and LTA4-H; type: biochemical; conditions: diflapolin up to 10 µM, AUDA 10 µM, SC57461A 0.3 µM, zileuton 3 µM
T2 construct: gift of Dr. E. Proschak, Goethe University, Frankfurt
T2 sequence (P09960 2-611 limits assumed): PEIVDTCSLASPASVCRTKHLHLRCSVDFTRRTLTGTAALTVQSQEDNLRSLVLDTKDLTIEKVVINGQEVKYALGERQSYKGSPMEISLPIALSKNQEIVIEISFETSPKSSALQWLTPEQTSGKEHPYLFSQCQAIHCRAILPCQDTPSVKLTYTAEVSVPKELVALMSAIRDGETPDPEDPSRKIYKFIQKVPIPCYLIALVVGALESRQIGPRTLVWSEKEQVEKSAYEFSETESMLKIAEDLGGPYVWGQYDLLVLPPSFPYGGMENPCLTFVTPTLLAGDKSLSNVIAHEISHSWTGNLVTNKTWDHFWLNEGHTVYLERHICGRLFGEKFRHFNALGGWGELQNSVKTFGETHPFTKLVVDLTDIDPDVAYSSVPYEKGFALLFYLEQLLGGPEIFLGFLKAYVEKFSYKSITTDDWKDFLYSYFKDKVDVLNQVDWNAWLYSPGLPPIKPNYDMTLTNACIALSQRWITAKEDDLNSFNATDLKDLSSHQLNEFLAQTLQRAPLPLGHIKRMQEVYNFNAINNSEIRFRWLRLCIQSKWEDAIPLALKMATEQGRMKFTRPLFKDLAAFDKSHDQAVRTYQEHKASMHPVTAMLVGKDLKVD
Experimental: In order to determine the activity of LTA4-H, aliquots of human recombinant 5-LOX (0.5 µg) and 10 µg of human recombinant LTA4-H (kindly provided by Dr. E. Proschak, Goethe University, Frankfurt, Germany) were suspended in 1 mL PBS containing 1 mM EDTA and pre-incubated with test compounds or vehicle (0.1% DMSO) for 10 min on ice. The specific LTA4-H inhibitor SC57461A (0.3 µM) was used as reference drug. Subsequently, incubations were stimulated with 20 µM AA and 2 mM CaCl2 for additional 10 min at 37 °C. The reaction was stopped by 1 volume ice-cold methanol, 530 µL acidified PBS and 200 ng of PGB1 as internal standard were added and subjected to solid phase extraction. All LTB4 isomers were analyzed by HPLC as described above.

effect on sEH in the cell-based sEH assay (sEH in HepG2 cells) | SMILES | effect on LTA4-H activity (LTB4 formation) (human recombinant LTA4-H)
no impact | CC(C)c1ccc2c(c1)c(SC(C)(C)C)c(CC(C)(C)C(=O)O)n2Cc1ccc(Cl)cc1 [MK886, 3-[1-(4-chlorobenzyl)-3-t-butyl-thio-5-isopropylindol-2-yl]-2,2 - dimethylpropanoic acid] | 
 | Cc1cc(OCc2nc3ccccc3s2)ccc1NC(=O)Nc1ccc(Cl)c(Cl)c1 [diflapolin, N-[4-(benzothiazol-2-ylmethoxy)-2-methylphenyl]-N′-(3,4-dichlorophenyl)urea] | failed to inhibit
